Earlier results on two compounds are cited in US6825382B2, “Trifluoromethylepinephrine compounds and methods of making and using thereof” (The United States of America as represented by the …, priority 2002, dated 2004).

Molecules are shown by their SMILES. Read-outs that look alike come from different tables or passages of the source.

For data set [1] the following is noted: 1a versus 1b.

For `CNC[C@H](O)c1ccc(O)c(O)c1` [epinephrine], the “epinephrine remaining, of the initial concentration” value reads like this: (dental preparations stored under clinical conditions) “less than 70%”; (dental preparations stored under optimal conditions) 85 to 90%.
With `CNC[C@H](O)c1ccc(O)c(O)c1` [1a, (−)-epinephrine], the “biological activity of (R)-enantiomer relative to (S)-enantiomer” value in data set [1] is reported as 15-20 times.
